Assay results taken from BigSolDB 2.1.

O=C1/C(=C/c2ccc(O)cc2)CCC/C1=C\c1ccc(O)cc1
solubility (mole fraction)
Settings | in 1,4-dioxane | in DMF | in DMSO | in THF | in acetic acid | in acetone | in ethyl acetate | in methanol | in n-butanol | in n-propanol
299.15 K | 0.0074 | 0.0332 | 0.0112 | 0.023 | 0.0032 | 0.0049 | 0.0021 | 0.0034 | 0.0134 | 0.0013
303.15 K | 0.0085 | 0.0388 | 0.0132 | 0.0256 | 0.0034 | 0.0061 | 0.0031 | 0.0041 | 0.0142 | 0.0023
308.15 K | 0.0101 | 0.0458 | 0.0156 | 0.0281 | 0.0036 | 0.0073 | 0.004 | 0.0051 | 0.0152 | 0.0036
313.15 K | 0.0115 | 0.0556 | 0.0251 | 0.0319 | 0.0039 | 0.0093 | 0.0053 | 0.0066 | 0.0164 | 0.0056
318.15 K | 0.0135 | 0.0658 | 0.0371 | 0.0387 | 0.0044 | 0.0114 | 0.0069 | 0.0086 | 0.0178 | 0.0086
323.15 K | 0.0153 | 0.0816 | 0.0528 | 0.0461 | 0.0052 | 0.0128 | 0.0102 | 0.0102 | 0.021 | 0.0123
328.15 K | 0.0172 | 0.106 | 0.0742 | 0.0527 | 0.0063 | 0.0147 | 0.0136 | 0.0129 | 0.0235 | 0.0169
